# Experimental data published in ChEMBL document CHEMBL1201862, “PubChem BioAssay data set” (2004).
# Calls of active or inactive are those of the source.
# Legend:
# [1] = biological target: Lysine-specific demethylase 4C (Homo sapiens, UniProt Q9H3R0); test: inhibition of JMJD2C H3K9me3 demethylation – biochemical, DELFIA europium, cherry-picked samples, dose response (AID 488835); assay type: functional
# A-375 [2] = test: MITF: Counter assay: A375 proliferation Measured in Cell-Based System Using Plate Reader - 2084-03_Inhibitor_Dose_DryPowder_Activity. [Related pubchem assays (depositor defined):AID488944]; assay type: functional; conditions: Homo sapiens
# A-375 [3] = test: proliferation inhibition in MITF-low A375 cells – cell-based, cherry-pick samples, set 2, counter-screen for MITF modulator project, dose response (AID 540335); assay type: functional; conditions: Homo sapiens
# [4] = biological target: Delta-type opioid receptor (Homo sapiens, UniProt P41143); test: Counterscreen for agonists of heterodimerization of the mu 1 (OPRM1) and delta 1 (OPRD1) opioid receptors: Luminescence-based cell-based high throughput dose response assay to identify agonists of OPRD1 homodimerization. [Related pubchem assays (depositor defined):AID504326, AID504355, AID504692, AID504904, AID504905]; assay type: functional
# Mu-type opioid receptor = Mu-type opioid receptor (Homo sapiens, UniProt P35372); test: Counterscreen for agonists of heterodimerization of the mu 1 (OPRM1) and delta 1 (OPRD1) opioid receptors: Luminescence-based cell-based high throughput dose response assay to identify agonists of OPRM1 homodimerization.; assay type: functional;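 further: U2OS cells expressing OPRM1 and beta-arrestin as split beta-galactosidase partners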
# [5] = biological target: 5-hydroxytryptamine receptor 5A (Homo sapiens, UniProt P47898); test: Counterscreen for agonists of OPRM1-OPRD1 heterodimerization: luminescence-based cell-based high throughput dose response assay to identify agonists of 5-hydroxytryptamine (serotonin) 5A receptor (HTR5A). [Related pubchem assays (depositor defined):AID504326, AID504355, AID504692, AID504904, AID504905]; assay type: functional
# [6] = A Cell Based Secondary Assay To Explore Cytotoxicity of Compounds that Sensitize Mycobacterium Tuberculosis to Beta-Lactam Antibiotics.; assay type: functional
# [7] = loss of viability in HepG2 cells – cell-based, CellTiter-Glo, cherry-picked, cytotoxicity control for Shn3 inhibitor project, dose response (AID 624134); assay type: functional
# [8] = biological target: T1, Microphthalmia-associated transcription factor (Homo sapiens, UniProt O75030); test: reducers of TRPM1 reporter luminescence, concentration series – cell-based, SK-MEL-5, cherry-picked, set 3, MITF inhibitor project, dose response (AID 493073); assay type: functional;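 further: SK-MEL-5 melanoma cells with luciferase driven by the MITF target TRPM1 promoter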
# T1 sequence (O75030 whole entry): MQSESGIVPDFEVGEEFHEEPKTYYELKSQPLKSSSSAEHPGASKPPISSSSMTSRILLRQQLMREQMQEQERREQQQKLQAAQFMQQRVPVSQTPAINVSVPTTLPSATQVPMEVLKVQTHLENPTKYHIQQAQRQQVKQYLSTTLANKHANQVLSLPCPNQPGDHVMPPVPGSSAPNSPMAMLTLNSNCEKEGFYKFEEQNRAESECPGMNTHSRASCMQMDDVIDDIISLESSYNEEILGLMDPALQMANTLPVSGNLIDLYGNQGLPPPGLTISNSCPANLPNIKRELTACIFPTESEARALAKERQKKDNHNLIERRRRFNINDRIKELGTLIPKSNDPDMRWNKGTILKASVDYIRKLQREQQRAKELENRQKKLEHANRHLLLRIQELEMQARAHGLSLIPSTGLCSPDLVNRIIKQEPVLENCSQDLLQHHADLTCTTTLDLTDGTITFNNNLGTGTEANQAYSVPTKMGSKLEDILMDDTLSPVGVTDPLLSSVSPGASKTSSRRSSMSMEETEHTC
# [9] = reduction of Shn3 3'UTR-driven luciferase in osteoblasts – cell-based, Clone20 osteoblasts, firefly luciferase, cherry-picked, dose response (AID 624132); assay type: functional;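 further: firefly luciferase luminescence from reporter carrying the Shn3 3'UTR in osteoblasts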
# [10] = non-specific 3'UTR reporter inhibition in Clone20-Shn3RL – cell-based, Renilla luciferase, cherry-picked, counter-screen for Shn3 inhibitor project, dose response (AID 624133); assay type: functional
# HEK293 [11] = test: cells; conditions: Homo sapiens
# HEK293 [12] = test: cells; conditions: Homo sapiens; remark: listed apart in the source
# Cytochrome P450 2D6 = Cytochrome P450 2D6 (Homo sapiens, UniProt P10635);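 further: CYP2D6 member of a cytochrome P450 panel assay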
# HeLa = test: viability loss in HeLa cells – cell-based, 24 h, cherry-picked samples, cytotoxicity control, dose response (AID 504726); assay type: functional; conditions: Homo sapiens;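 further: potency for cytotoxicity as loss of luminescence signal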
# ORF 73 = biological target: T2, ORF 73 (Human herpesvirus 8, UniProt O40947); test: KSHV LANA DNA-binding disruption – biochemical, fluorescence polarization, cherry-picked samples, dose response (AID 504725); parameters: species or system Human gammaherpesvirus 8;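 further: fluorescence polarization of a labeled DNA duplex reporting LANA DNA binding; potency is for inhibitors that block LANA binding to the DNA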
# T2 sequence (O40947 whole entry): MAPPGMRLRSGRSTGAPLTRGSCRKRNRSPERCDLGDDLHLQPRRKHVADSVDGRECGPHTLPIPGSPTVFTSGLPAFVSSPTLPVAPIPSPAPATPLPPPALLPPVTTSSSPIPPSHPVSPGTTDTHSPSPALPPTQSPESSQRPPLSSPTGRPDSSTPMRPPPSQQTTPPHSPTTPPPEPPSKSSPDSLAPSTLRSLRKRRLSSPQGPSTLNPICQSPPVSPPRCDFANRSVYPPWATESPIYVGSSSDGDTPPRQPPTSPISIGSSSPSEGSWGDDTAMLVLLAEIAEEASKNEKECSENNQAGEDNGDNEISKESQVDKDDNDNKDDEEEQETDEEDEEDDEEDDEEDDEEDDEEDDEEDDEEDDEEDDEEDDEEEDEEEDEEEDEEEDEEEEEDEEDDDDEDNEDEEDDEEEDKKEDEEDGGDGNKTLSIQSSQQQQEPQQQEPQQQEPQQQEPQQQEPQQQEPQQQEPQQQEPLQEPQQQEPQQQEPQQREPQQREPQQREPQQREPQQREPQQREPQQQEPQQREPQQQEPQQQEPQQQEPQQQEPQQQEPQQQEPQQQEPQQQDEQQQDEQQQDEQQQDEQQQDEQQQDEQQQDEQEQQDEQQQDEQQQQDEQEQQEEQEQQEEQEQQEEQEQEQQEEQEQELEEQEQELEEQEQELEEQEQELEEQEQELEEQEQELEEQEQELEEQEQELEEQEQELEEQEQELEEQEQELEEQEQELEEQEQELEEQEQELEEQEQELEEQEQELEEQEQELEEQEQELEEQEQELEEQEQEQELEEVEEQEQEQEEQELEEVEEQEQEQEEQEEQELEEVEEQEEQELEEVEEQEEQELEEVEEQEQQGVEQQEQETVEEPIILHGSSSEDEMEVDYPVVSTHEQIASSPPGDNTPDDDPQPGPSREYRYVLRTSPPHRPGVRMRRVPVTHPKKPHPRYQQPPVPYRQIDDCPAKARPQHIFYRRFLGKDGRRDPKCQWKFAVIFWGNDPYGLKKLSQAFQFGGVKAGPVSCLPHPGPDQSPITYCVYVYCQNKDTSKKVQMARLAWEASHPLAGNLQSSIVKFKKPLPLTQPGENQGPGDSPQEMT
# Vero [13] = test: cells; assay type: functional, cell-based; conditions: Chlorocebus sabaeus
# Vero [14] = test: cells; assay type: functional; conditions: Chlorocebus sabaeus
# Tumor necrosis factor = Tumor necrosis factor (Homo sapiens, UniProt P01375); test: analog potency on TNFa NF-kB signaling – cell-based, revised, SAR follow-up (AID 2337); assay type: functional
# HEK293 [15] = test: cells; conditions: Homo sapiens; remark: listed apart in the source
# [16] = biological target: T3, Nucleotide-binding oligomerization domain-containing protein 1 (Homo sapiens, UniProt Q9Y239); test: blockers of NOD1 pathway activity – revised, SAR follow-up (AID 2333); assay type: functional
# T3 sequence (Q9Y239 whole entry): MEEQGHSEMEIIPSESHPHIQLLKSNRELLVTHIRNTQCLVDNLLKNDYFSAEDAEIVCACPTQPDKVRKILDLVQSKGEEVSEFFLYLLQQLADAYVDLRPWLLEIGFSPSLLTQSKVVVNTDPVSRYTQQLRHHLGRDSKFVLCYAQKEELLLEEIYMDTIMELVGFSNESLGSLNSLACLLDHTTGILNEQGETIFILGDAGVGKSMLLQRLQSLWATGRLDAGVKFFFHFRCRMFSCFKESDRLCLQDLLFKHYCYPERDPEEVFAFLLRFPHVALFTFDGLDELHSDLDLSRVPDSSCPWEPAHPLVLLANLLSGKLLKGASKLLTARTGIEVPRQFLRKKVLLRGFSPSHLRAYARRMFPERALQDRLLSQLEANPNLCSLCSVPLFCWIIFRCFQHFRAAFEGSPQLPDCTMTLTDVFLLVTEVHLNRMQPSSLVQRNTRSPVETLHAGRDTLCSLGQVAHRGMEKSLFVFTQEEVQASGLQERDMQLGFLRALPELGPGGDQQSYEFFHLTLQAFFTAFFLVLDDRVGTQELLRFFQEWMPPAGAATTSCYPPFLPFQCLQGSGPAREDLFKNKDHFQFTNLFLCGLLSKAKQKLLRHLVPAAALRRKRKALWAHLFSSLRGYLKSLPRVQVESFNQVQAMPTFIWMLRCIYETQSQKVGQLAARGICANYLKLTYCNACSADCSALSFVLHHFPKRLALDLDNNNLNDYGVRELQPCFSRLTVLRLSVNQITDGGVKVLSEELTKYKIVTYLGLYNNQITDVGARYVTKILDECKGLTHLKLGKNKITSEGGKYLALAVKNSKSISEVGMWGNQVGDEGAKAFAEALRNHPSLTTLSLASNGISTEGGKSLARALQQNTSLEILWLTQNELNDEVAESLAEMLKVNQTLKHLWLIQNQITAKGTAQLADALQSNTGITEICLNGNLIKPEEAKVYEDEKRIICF
# [17] = alpha-synuclein stem-loop luciferase translation blockers – H4 neuroglioma cells, luminescence, confirmation (AID 1988); assay type: functional, cell-based
# [18] = luciferase reporter signal suppression in cells – H4 neuroglioma cells, luminescence, dose response (AID 1990); assay type: functional, cell-based
# [19] = Luminescence Cell-Based Dose Retest to Confirm Inhibitors of Cancer Stem Cells. [Related pubchem assays (depositor defined):AID2717, AID2721]; assay type: functional; conditions: Homo sapiens
# [20] = Luminescence Cell-Based Dose Response HTS to Identify Inhibitors of 5'UTR Stem-Loop Driven Prion Protein mRNA Translation in H4 Neuroglioblastoma Cells. [Related pubchem assays: 1827 (Project Summary), 1813 (Primary HTS)]; assay type: functional
# HEK293 [21] = test: NOD2 signaling inhibitors in MDP-stimulated cells, cell-based, uHTS, luminescence (AID 2001); assay type: functional; conditions: Homo sapiens
# HEK293 [22] = test: inhibition of NOD1-driven NF-kB reporter – cell-based, luminescence, uHTS, primary screen (AID 1578); assay type: functional; conditions: Homo sapiens
# Nonstructural protein 1 = Nonstructural protein 1 (Influenza A virus, UniProt Q194T2); assay type: functional, Influenza A virus (A/California/07/2009(H1N1))
# HEK293 [23] = test: cells; assay type: functional, cell-based; conditions: Homo sapiens
# HEK293 [24] = test: cells; assay type: functional, cell-based; conditions: Homo sapiens; remark: listed apart in the source
# HEK293 [25] = test: cells; assay type: functional, cell-based; conditions: Homo sapiens; remark: listed apart in the source
# [26] = biological target: Nucleotide-binding oligomerization domain-containing protein 2 (Homo sapiens, UniProt Q9HC29); test: inhibition of NOD2-driven NF-kB reporter – cell-based, luminescence, uHTS, HEK293 (AID 1566); assay type: functional
# Chain of Nucleotide-binding oligomerization domain-containing protein 2 (Q9HC29 whole entry, the tested form may be a part): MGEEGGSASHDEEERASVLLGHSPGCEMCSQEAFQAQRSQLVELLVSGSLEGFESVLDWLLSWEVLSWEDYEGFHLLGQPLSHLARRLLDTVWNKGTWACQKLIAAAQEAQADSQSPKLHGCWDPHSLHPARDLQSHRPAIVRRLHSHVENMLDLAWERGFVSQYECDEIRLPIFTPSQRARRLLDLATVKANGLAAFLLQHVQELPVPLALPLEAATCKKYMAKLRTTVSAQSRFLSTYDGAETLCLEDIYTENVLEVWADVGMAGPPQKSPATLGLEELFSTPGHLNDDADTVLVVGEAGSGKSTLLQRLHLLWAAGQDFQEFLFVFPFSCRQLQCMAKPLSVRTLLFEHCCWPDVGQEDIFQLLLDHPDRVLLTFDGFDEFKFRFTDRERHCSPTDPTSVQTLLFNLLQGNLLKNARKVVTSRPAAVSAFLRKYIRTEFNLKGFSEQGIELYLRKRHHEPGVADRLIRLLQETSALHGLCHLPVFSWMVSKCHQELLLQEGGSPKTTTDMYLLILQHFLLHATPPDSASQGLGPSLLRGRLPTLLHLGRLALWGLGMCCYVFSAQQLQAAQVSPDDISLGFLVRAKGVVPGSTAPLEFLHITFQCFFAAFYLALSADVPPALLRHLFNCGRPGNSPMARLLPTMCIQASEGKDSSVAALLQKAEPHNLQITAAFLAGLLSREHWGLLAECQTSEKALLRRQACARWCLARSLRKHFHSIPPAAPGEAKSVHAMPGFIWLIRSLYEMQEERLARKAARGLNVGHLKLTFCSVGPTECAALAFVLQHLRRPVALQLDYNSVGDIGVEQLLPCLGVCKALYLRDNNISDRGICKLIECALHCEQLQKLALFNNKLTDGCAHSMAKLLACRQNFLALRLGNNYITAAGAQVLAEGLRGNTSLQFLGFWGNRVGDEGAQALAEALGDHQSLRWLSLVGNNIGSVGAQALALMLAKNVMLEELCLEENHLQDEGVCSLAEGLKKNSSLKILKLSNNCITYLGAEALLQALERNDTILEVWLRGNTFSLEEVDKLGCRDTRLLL
# Chain of Lysine-specific demethylase 4C (Q9H3R0 whole entry): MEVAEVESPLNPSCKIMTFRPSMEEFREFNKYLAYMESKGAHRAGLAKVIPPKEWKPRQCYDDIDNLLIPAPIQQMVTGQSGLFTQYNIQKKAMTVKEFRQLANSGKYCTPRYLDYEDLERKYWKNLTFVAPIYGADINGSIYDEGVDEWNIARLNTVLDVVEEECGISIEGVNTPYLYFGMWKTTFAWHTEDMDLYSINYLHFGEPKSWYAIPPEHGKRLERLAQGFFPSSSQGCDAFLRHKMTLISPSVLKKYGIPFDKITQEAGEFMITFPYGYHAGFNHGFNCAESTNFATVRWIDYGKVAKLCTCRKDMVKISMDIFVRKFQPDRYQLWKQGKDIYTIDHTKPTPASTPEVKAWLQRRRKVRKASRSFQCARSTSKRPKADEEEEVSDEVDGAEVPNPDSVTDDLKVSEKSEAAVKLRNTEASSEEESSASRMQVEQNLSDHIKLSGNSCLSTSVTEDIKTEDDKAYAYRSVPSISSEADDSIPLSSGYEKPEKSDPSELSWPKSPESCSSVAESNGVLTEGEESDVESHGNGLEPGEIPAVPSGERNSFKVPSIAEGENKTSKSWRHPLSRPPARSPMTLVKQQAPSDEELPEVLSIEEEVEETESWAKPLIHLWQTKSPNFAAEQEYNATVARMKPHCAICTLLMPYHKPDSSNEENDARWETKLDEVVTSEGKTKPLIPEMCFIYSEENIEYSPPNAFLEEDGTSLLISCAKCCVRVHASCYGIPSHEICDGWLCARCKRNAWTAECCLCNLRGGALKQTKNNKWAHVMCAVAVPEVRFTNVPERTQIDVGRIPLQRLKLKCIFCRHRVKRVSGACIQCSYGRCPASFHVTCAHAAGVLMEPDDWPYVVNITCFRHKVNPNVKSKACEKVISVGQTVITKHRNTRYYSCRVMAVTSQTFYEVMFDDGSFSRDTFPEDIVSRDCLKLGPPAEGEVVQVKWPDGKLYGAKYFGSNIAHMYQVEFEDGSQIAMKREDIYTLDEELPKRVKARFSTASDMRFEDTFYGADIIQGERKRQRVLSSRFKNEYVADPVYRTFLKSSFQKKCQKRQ
# Chain of Tumor necrosis factor (P01375 whole entry): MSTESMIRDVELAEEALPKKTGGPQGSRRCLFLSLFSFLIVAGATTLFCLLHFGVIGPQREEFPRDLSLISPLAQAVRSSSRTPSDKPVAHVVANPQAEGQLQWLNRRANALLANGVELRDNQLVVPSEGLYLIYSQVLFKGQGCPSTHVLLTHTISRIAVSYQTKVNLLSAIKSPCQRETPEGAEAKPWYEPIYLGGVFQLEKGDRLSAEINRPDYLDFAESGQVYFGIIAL
# Chain of Delta-type opioid receptor (P41143 whole entry): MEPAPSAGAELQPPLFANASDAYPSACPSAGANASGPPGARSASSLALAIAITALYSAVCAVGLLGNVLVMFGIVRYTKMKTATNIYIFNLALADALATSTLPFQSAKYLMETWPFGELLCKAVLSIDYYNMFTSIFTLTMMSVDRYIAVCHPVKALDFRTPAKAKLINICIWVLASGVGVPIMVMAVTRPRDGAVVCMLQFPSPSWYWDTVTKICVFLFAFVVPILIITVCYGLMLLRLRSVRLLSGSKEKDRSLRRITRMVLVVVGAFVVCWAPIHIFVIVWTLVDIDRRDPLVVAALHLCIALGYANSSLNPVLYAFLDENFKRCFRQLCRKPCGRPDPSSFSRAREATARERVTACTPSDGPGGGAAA
# Chain of Mu-type opioid receptor (P35372 whole entry): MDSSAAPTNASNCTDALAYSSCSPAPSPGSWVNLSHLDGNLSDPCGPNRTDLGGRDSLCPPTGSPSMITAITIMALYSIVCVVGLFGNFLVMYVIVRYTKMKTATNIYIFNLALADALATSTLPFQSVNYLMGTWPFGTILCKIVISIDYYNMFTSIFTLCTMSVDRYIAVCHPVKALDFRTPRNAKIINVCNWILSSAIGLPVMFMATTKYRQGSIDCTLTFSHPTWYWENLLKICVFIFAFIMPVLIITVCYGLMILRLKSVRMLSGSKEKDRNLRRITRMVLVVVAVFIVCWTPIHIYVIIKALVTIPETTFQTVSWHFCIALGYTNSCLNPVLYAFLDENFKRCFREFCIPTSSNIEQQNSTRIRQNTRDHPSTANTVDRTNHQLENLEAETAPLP
# Chain of Nonstructural protein 1 (Q194T2 whole entry): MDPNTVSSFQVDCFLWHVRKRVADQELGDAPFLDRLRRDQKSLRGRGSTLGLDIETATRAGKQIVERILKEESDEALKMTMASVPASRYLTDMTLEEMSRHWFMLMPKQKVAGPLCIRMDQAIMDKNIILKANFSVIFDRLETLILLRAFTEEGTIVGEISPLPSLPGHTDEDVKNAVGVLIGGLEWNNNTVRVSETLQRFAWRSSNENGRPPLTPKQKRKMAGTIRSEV
# Chain of Cytochrome P450 2D6 (P10635 whole entry): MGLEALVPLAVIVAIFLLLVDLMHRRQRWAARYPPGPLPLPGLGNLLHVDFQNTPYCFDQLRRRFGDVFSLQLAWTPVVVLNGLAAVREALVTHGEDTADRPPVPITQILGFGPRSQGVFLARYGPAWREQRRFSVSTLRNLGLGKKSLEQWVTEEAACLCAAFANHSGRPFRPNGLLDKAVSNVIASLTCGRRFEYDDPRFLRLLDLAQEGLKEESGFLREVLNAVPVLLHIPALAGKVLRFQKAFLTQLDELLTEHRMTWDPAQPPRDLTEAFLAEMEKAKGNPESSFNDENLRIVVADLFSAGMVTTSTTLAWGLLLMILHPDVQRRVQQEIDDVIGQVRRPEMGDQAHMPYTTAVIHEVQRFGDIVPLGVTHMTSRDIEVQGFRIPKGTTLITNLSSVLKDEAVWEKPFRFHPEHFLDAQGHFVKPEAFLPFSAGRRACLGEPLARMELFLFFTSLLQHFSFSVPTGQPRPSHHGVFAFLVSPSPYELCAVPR
# Chain of 5-hydroxytryptamine receptor 5A (P47898 whole entry): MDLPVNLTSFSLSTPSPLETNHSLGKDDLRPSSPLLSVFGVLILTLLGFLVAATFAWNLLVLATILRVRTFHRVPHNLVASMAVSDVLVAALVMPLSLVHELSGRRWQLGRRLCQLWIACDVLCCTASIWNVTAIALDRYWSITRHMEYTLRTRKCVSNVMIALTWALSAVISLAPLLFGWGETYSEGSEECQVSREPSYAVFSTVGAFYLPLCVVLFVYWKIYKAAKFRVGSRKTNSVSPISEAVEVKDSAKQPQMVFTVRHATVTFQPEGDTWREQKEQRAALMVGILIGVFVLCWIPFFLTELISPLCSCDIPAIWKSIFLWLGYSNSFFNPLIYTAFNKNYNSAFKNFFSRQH
smiles,measurement,setting,value
CCOc1ccc(NC(=O)CSc2nnc(-c3ccccc3)n2N)cc1,AC50,[1],12.1 µM (active)
CC(C)(CO)NC(=O)c1ccc2nc(Cc3cccc(Cl)c3)oc2c1,AC50,A-375 [2],> 35 µM (active)
same,AC50,A-375 [3],> 35 µM (active)
CCOC(=O)c1c(C)[nH]c(C(=O)OCC(O)=C(C#N)c2nc3ccccc3[nH]2)c1C,EC50,[4],> 92.5 µM (inactive)
same,EC50,Mu-type opioid receptor,> 92.5 µM (inactive)
same,EC50,[5],> 92.5 µM (inactive)
O=C(Nc1ccc2nc3n(c(=O)c2c1)CCCC3)c1cc([N+](=O)[O-])ccc1F,AC50,A-375 [2],> 35 µM (active)
same,CC50,[6],15.1 µM (active)
same,AC50,A-375 [3],> 35 µM (active)
same,AC50,[7],39.2 µM (active)
same,AC50,[8],11.5 µM (active)
same,AC50,[9],0.361 µM (active)
same,AC50,[10],21.8 µM (active)
CC(C)(C)n1nnnc1C(c1cccnc1)N(Cc1ccccc1)Cc1ccco1 (centres undefined),EC50,HEK293 [11],> 59.6 µM (inactive)
same,EC50,HEK293 [12],> 59.6 µM (inactive)
same,AC50,Cytochrome P450 2D6,31.6 µM (inconclusive)
same,AC50,HeLa,75.8 µM (active)
same,AC50,ORF 73,0.592 µM (active)
Cc1ccc(-c2nnn3c2nc(Cl)c2ccccc23)cc1,IC50,Vero [13],> 25 µM (active)
same,CC50,Vero [14],18.4 µM (active)
CCCN(C(=O)Cc1ccc(S(=O)(=O)N2CCOCC2)s1)c1c(N)n(Cc2ccccc2)c(=O)[nH]c1=O,AC50,[1],39.2 µM (active)
CC1Cc2cc(S(=O)(=O)N3CCN(c4ccc([N+](=O)[O-])cc4)CC3)ccc2N1C(=O)C1CC1 (centres undefined),IC50,Tumor necrosis factor,0.236 µM (active)
same,IC50,HEK293 [15],15.2 µM (active)
same,IC50,[16],0.26 µM (active)
Cc1cccc(NC(=O)CSCC(=O)Nc2cc(C(F)(F)F)ccc2N2CCOCC2)c1,EC50,HEK293 [11],> 59.6 µM (inactive)
same,EC50,HEK293 [12],> 59.6 µM (inactive)
Cc1cccc(N/N=C(\C(N)=O)C2=NC(C)(C)Cc3ccccc32)c1,EC50,[17],20.2 µM (active)
same,IC50,Vero [13],> 25 µM (active)
same,EC50,[18],3.43 µM (active)
same,AC50,[19],9.41 µM (active)
same,CC50,Vero [14],> 25 µM (active)
same,EC50,[20],13.1 µM (active)
COc1cc(/C=C2\CCC/C(=C\c3ccc(O)c(OC)c3)C2=O)ccc1O [CYCLOVALONE],IC50,HEK293 [21],3.75 µM (active)
same,EC50,HEK293 [22],4.94 µM (active)
same,IC50,Nonstructural protein 1,> 100 µM (active)
same,IC50,HEK293 [23],> 20 µM (inactive)
same,IC50,HEK293 [24],3.6 µM (active)
same,IC50,HEK293 [25],> 20 µM (inactive)
same,EC50,[26],9.95 µM (active)
